Results as given in patent publication US8232401B2 (Japan Tobacco Inc., priority 2002, dated 2012).

Biological target: T1, HIV integrase (Human immunodeficiency virus type 1 group M subtype B, UniProt P12497, F1332H)
T1 construct: HIV integrase full length gene; made in house; host or cells: Escherichia coli BL21(DE3)
Assay: Determination of enzyme (HIV integrase) inhibitory activity (strand transfer, microtiter plate, absorbance at 450 nm)
Type: biochemical, HIV (Human Immunodeficiency Virus (type 1))
Details: recombinant HIV integrase (F185H) expressed in E. coli; donor DNA on streptavidin plate, digoxigenin target DNA; 37° C.
Experimental: The following explains evaluation methods of the HIV integrase inhibitory activity of the compound of the present invention.
(i) Construction of Recombinant Integrase Gene Expression System
(ii) Production and Purification of Integrase Protein
Escherichia coli recombinant BL21(DE3) transformed with plasmid pET21a-IN-F185H obtained in (i) was shake cultured at 30° C. in a liquid medium containing ampicillin. When the culture reached the logarithmic growth phase, isopropyl-β-D-thiogalactopyranoside was added to promote expression of integrase gene. The culture was continued for 3 hrs to promote accumulation of the integrase protein. The recombinant E. coli was collected in pellets by centrifugal separation and preserved at −80° C.
The E. coli was suspended in Lysis buffer (20 mM HEPES (pH 7.5), 5 mM DTT, 10 mM CHAPS, 10% glycerol) containing 1M sodium chloride and subjected to repeat pressurization and depressurization for rupture, and centrifugal separation at 4° C., 40,000×g, 60 min to recover a water-soluble fraction (supernatant). This was diluted 10-fold with Lysis buffer free of sodium chloride, mixed with SP-Sepharose (Pharmacia Corporation) and stirred at 4° C. for 60 min to allow adsorption of integrase protein to the resin. The resin was washed with Lysis buffer containing 100 mM sodium chloride and the integrase protein was eluted with Lysis buffer containing 1M sodium chloride.
The eluted integrase protein solution was applied to a Superdex 75 (Pharmacia Corporation) column for gel filtration. The protein was eluted with Lysis buffer containing 1M sodium chloride.
The obtained fractions of the integrate protein were collected and preserved at −80° C.
(iii) Preparation of DNA Solution
The following DNA synthesized by Greiner was dissolved in TE buffer (10 mM Tris-hydrochloric acid (pH 8.0), 1 mM EDTA) and mixed with donor DNA, target DNA, each complementary strand (+ and − strands) to 1 μM. The mixture was heated at 95° C. for 5 min, 80° C. for 10 min, 70° C. for 10 min, 60° C. for 10 min, 50° C. for 10 min and 40° C. for 10 min and preserved at 25° C. to give a double stranded DNA, which was used for the test. Donor DNA (− strand having biotin attached to the 5′ terminal)
(iv) Determination of Enzyme (HIV Integrase) Inhibitory activity
The donor DNA was diluted with TE buffer to 10 nM, of which 50 μl was added to each well of streptavidin-coated microtiter plate (Roche) and allowed to adsorb at 37° C. for 60 min. The DNA was washed with phosphate buffer (Dulbecco PBS, Sanko Junyaku Co., Ltd.) containing 0.1% Tween 20 and phosphate buffer. Then, a reaction mixture (70 μl) having the following composition, a test substance (10 μl) diluted with the reaction mixture and […] integrase protein (10 μl) were added to each well and reacted at 37° C. for 60 min.
Then, 50 nM target DNA (1.0 μl) was added, reacted at 37° C. for 10 min and washed with phosphate buffer containing 0.1% Tween 20 to stop the reaction.
Then, 100 mU/ml peroxidase labeled anti-digoxigenin antibody solution (Roche, 100 μl) was added, and the mixture was reacted at 37° C. for 60 min, followed by washing with phosphate buffer containing 0.1% Tween 20.
A peroxidase color solution (Bio Rad, 100 μl) was added and allowed to react at room temperature for 4 min. The color reaction was stopped by adding 1N sulfuric acid (100 μl). The absorbance at 450 nm was measured.
The HIV integrase inhibitory activity (IC50) of the compound of the present invention was calculated from the inhibition rate according to the following formula. […] Evaluation of Antiviral Activity

Row | Compound | IC50
1 | O=C(O)c1cn(CCO)c2c(F)cc(Cc3cccc(Cl)c3Cl)cc2c1=O [Example 1-2, 6-(2,3-dichlorobenzyl)-1,4-dihydro-8-fluoro-1-(2-hydroxyethyl)-4-oxo-3-quinolinecarboxylic acid] | 33 nM
2 | CS(=O)(=O)NCCn1cc(C(=O)O)c(=O)c2cc(Cc3cccc(Cl)c3Cl)ccc21 [Example 1-3, 6-(2,3-Dichlorobenzyl)-1-(2-methanesulfonylaminoethyl)-4-oxo-1,4-dihydroquinoline-3-carboxylic acid] | 360 nM
3 | O=C(O)c1cn(CCn2ccnc2)c2ccc(Cc3cccc(Cl)c3Cl)cc2c1=O [Example 1-4, 6-(2,3-Dichlorobenzyl)-1-(2-imidazol-1-ylethyl)-4-oxo-1,4-dihydroquinoline-3-carboxylic acid] | 240 nM
4 | CNC(=O)Cn1cc(C(=O)O)c(=O)c2cc(Cc3cccc(Cl)c3Cl)ccc21 [Example 1-6, 6-(2,3-Dichlorobenzyl)-1-methylcarbamoylmethyl-4-oxo-1,4-dihydroquinoline-3-carboxylic acid] | 140 nM
5 | NC(=O)Cn1cc(C(=O)O)c(=O)c2cc(Cc3cccc(Cl)c3Cl)ccc21 [Example 1-7, 1-Carbamoylmethyl-6-(2,3-Dichlorobenzyl)-4-oxo-1,4-dihydroquinoline-3-carboxylic acid] | 67 nM
6 | CC(C)n1cc(C(=O)O)c(=O)c2cc(Cc3cccc(Cl)c3Cl)ccc21 [Example 1-8, 6-(2,3-Dichlorobenzyl)-1-isopropyl-4-oxo-1,4-dihydroquinoline-3-carboxylic acid] | 46 nM
7 | NS(=O)(=O)Cn1cc(C(=O)O)c(=O)c2cc(Cc3cccc(Cl)c3Cl)ccc21 [Example 1-9, 6-(2,3-Dichlorobenzyl)-4-oxo-1-sulfamoylmethyl-1,4-dihydroquinoline-3-carboxylic acid] | 17 nM
8 | O=C(O)CCn1cc(C(=O)O)c(=O)c2cc(Cc3cccc(Cl)c3Cl)ccc21 [Example 1-10, 1-(2-Carboxyethyl)-6-(2,3-dichlorobenzyl)-4-oxo-1,4-dihydroquinoline-3-carboxylic acid] | 72 nM
9 | O=C(O)c1cn(CCO)c2ccc(Cc3cccc4ccccc34)cc2c1=O [Example 1-11, 1-(2-Hydroxyethyl)-6-naphthalen-1-ylmethyl-4-oxo-1,4-dihydroquinoline-3-carboxylic acid] | 180 nM
10 | COC(=O)c1cn(CCO)c2ccc(Cc3cccc(Cl)c3Cl)cc2c1=O [Example 1-12, 6-(2,3-Dichlorobenzyl)-1-(2-hydroxyethyl)-4-oxo-1,4-dihydroquinoline-3-carboxylic acid methyl ester] | 710 nM
11 | NC(=O)CCn1cc(C(=O)O)c(=O)c2cc(Cc3cccc(Cl)c3Cl)ccc21 [Example 1-13, 1-(2-Carbamoylethyl)-6-(2,3-dichlorobenzyl)-4-oxo-1,4-dihydroquinoline-3-carboxylic acid] | 140 nM
12 | CC(=O)Cn1cc(C(=O)O)c(=O)c2cc(Cc3cccc(Cl)c3Cl)ccc21 [Example 1-14, 6-(2,3-Dichlorobenzyl)-4-oxo-1-(2-oxopropyl)-1,4-dihydroquinoline-3-carboxylic acid] | 75 nM
13 | O=C(O)c1cn(Cc2ccccc2)c2ccc(Cc3cccc(Cl)c3Cl)cc2c1=O [Example 1-15, 1-Benzyl-6-(2,3-dichlorobenzyl)-4-oxo-1,4-dihydroquinoline-3-carboxylic acid] | 230 nM
14 | O=C(O)c1cn(CCc2ccccc2)c2ccc(Cc3cccc(Cl)c3Cl)cc2c1=O [Example 1-16, 6-(2,3-Dichlorobenzyl)-4-oxo-1-phenethyl-1,4-dihydroquinoline-3-carboxylic acid] | 32 nM
15 | O=C(O)c1cn(CCCc2ccccc2)c2ccc(Cc3cccc(Cl)c3Cl)cc2c1=O [Example 1-17, 6-(2,3-Dichlorobenzyl)-1-(3-phenylpropyl)-4-oxo-1,4-dihydroquinoline-3-carboxylic acid] | 84 nM
16 | CC(C)Cn1cc(C(=O)O)c(=O)c2cc(Cc3cccc(Cl)c3Cl)ccc21 [Example 1-18, 6-(2,3-Dichlorobenzyl)-1-isobutyl-4-oxo-1,4-dihydroquinoline-3-carboxylic acid] | 120 nM
17 | O=C(O)c1cn(CCCCc2ccccc2)c2ccc(Cc3cccc(Cl)c3Cl)cc2c1=O [Example 1-19, 6-(2,3-Dichlorobenzyl)-1-(4-phenylbutyl)-4-oxo-1,4-dihydroquinoline-3-carboxylic acid] | 81 nM
18 | O=C(O)c1cn(Cc2ccccc2-c2ccccc2)c2ccc(Cc3cccc(Cl)c3Cl)cc2c1=O [Example 1-20, 1-Biphenyl-2-ylmethyl-6-(2,3-dichlorobenzyl)-4-oxo-1,4-dihydroquinoline-3-carboxylic acid] | 690 nM
19 | O=C(O)c1cn(CCCCO)c2ccc(Cc3cccc(Cl)c3Cl)cc2c1=O [Example 1-21, 6-(2,3-Dichlorobenzyl)-1-(4-hydroxybutyl)-4-oxo-1,4-dihydroquinoline-3-carboxylic acid] | 74 nM
20 | O=C(O)c1cn(Cc2cc3ccccc3s2)c2ccc(Cc3cccc(Cl)c3Cl)cc2c1=O [Example 1-22, 1-Benzo[b]thiophen-2-ylmethyl-6-(2,3-dichlorobenzyl)-4-oxo-1,4-dihydroquinoline-3-carboxylic acid] | 110 nM
21 | O=C(O)c1cn(Cc2ccc(Cl)c(Cl)c2)c2ccc(Cc3cccc(Cl)c3Cl)cc2c1=O [Example 1-23, 6-(2,3-dichlorobenzyl)-1-(3,4-dichlorobenzyl)-4-oxo-1,4-dihydroquinoline-3-carboxylic acid] | 190 nM
22 | CN(C)CCn1cc(C(=O)O)c(=O)c2cc(Cc3cccc(Cl)c3Cl)ccc21 [Example 1-24, 6-(2,3-Dichlorobenzyl)-1-(2-dimethylaminoethyl)-4-oxo-1,4-dihydroquinoline-3-carboxylic acid] | 290 nM
23 | O=C(O)c1cn(CCCO)c2ccc(Cc3cccc(Cl)c3Cl)cc2c1=O [Example 1-25, 6-(2,3-Dichlorobenzyl)-1-(3-hydroxypropyl)-4-oxo-1,4-dihydroquinoline-3-carboxylic acid] | 160 nM
24 | COCCn1cc(C(=O)O)c(=O)c2cc(Cc3cccc(Cl)c3Cl)ccc21 [Example 1-26, 6-(2,3-Dichlorobenzyl)-1-(2-methoxyethyl)-4-oxo-1,4-dihydroquinoline-3-carboxylic acid] | 180 nM
25 | O=C(O)c1cn(CC(F)(F)F)c2ccc(Cc3cccc(Cl)c3Cl)cc2c1=O [Example 1-27, 6-(2,3-Dichlorobenzyl)-1-(2,2,2-trifluoroethyl)-4-oxo-1,4-dihydroquinoline-3-carboxylic acid] | 76 nM
26 | O=C(O)Cn1cc(C(=O)O)c(=O)c2cc(Cc3cccc(Cl)c3Cl)ccc21 [Example 1-28, 1-Carboxymethyl-6-(2,3-dichlorobenzyl)-4-oxo-1,4-dihydroquinoline-3-carboxylic acid] | 59 nM
27 | Cc1ncsc1CCn1cc(C(=O)O)c(=O)c2cc(Cc3cccc(Cl)c3Cl)ccc21 [Example 1-29, 6-(2,3-Dichlorobenzyl)-1-[2-(4-methylthiazol-5-yl)ethyl]-4-oxo-1,4-dihydroquinoline-3-carboxylic acid] | 240 nM
28 | CC(O)Cn1cc(C(=O)O)c(=O)c2cc(Cc3cccc(Cl)c3Cl)ccc21 (stereo not drawn) [Example 1-30, 6-(2,3-Dichlorobenzyl)-1-(2-hydroxypropyl)-4-oxo-1,4-dihydroquinoline-3-carboxylic acid] | 140 nM
29 | O=C(O)c1cn(CCO)c2ccc(Cc3cccc(Cl)c3)cc2c1=O [Example 1-31] | 170 nM
30 | CSCCn1cc(C(=O)O)c(=O)c2cc(Cc3cccc(Cl)c3Cl)ccc21 [Example 1-32, 6-(2,3-Dichlorobenzyl)-1-(2-methylsulfanylethyl)-4-oxo-1,4-dihydroquinoline-3-carboxylic acid] | 68 nM
